Source: patent US9550811B2, “Peptide scaffold design” (BIONOR IMMUNO AS, priority 2010, dated 2017)
“And” between values parts separate entries of the source, which are not always exact repeats. Equal entries are not always repeated. Where two headings read alike, the source gives them in different places.

Key:
[1] = test system: PBMC samples from HCV patients; test: Human IFN-gamma cytotoxic T-cell (CTL) response by ELISPOT assay; format: cell-based
Protocol: Human IFN-Gamma Cytotoxic T-Cell (CTL) Response by ELISPOT Assay
Briefly, at day 1, PBMC samples from HCV patients were incubated in flasks (430 000 PBMCs/cm2) for 2 h at 37° C., 5% CO2 in covering amount of culture media (RPMI 1640 Fisher Scientific; Cat No. PAAE15-039 supplemented with L-Glutamine, (MedProbe Cat. No. 13E17-605E, 10% Foetal Bovine serum (FBS), Fisher Scientific Cat. No. A15-101) and Penicillin/Streptomycin, (Fisher Acientific Cat. No. P11-010) in order to allow adherence of monocytes. Non-adherent cells were isolated, washed, and frozen in 10% V/V DMSO in FBS until further usage. Adherent cells were carefully washed with culture media, followed by incubation at 37° C. until day 3 in culture media containing 2 μg/ml final concentration of hrGM-CSF (Xiamen amoytop biotech co, cat no: 3004.9090.90) & 1 μg/ml hrIL-4 (Invitrogen, Cat no: PHC0043), and this procedure was then repeated at day 6. At day 7, cultured dendritic cells (5 000-10 000 per well) were added to ELISPOT (Millipore multiscreen HTS) plates coated with 0.5 μg/well anti-human γ Interferon together with thawed autologous non-adherent cells (200 000 per well), antigen samples (1-8 ug/ml final concentration for peptide antigens; 5 ug/ml final concentration for Concanavalin A (Sigma, Cat no: C7275) or PHA (Sigma, Cat no: L2769)) & anti-Anergy antibodies (0.03-0.05 ug/ml final concentration for both anti-PD-1 (eBioscience, cat no: 16-9989-82) & anti-PD-L1 (eBioscience, cat no: 16-5983-82)). Plates were incubated overnight and spots were developed according to manufacturer. Spots were read on ELISPOT reader (CTL-ImmunoSpot® S5 UV Analyzer).

[2] = test system: human PBMCs; test: Extracellular staining for biotinylated peptides (flow cytometry); format: cell-based
Protocol: (§1) 96-well U-bottom polystyrene plates (NUNC, cat no: 163320) were used for staining of human PBMCs. Briefly, 8 ul of N- or C-terminally biotinylated peptides according to table 1 or table 2 (i.e. 5 mM, 2.5 mM & 1.25 mM tested for each peptide; all peptides manufactured by Schafer) were incubated at 37° C. for 2 h with 40 ul of PBMC (12.5×10^6 cells/ml) from blood donors. Cells were then washed 3× with 150 ul of Cellwash (BD, cat no: 349524), then stained with Streptavidin-APC (BD, cat no: 554067) & Anti-hCD11c (eBioscience, cat no: 12-0116) according to manufacturer at 4° C. for 30 min aiming to visualize biotinylated peptides & dendritic cells, respectively. Cells were then washed 3× with 150 ul of Cellwash (BD, cat no: 349524), followed by resuspension in staining buffer (BD, cat no: 554656) before flow cytometry. Dendritic cells were gated as CD11c+ events outside lymphocyte region (i.e. higher FSC & SSC signals than lymphocytes). 200 000 total cells were acquired on a FACSCanto II flow cytometer with HTS loader, and histograms for both total cells & dendritic cells with respect to peptide-fluorescence (i.e. GeoMean) were prepared.

[3] = test system: human PBMCs; format: cell-based
[4] = test system: DC-cells; test: Cell penetration assay: staining for biotinylated peptides, dendritic cells gated as CD11c+; format: cell-based, human; conditions: low concentration of peptides (208 uM)
Protocol: A set of peptides were biotinylated on N-terminal, and different combinations of aminoacids, with respect to length and type, were added to the sequence box X^1, X^3 and X^4 in the peptides as illustrated by the diagram below. The peptides were tested on cells grown from one individual blood donor.
as §1, with “for each peptide) were incubated” for “for each peptide; all peptides manufactured by Schafer) were incubated”, “no: 349524), followed by resuspension of each cell pellet with 100 ul of Trypsin-EDTA (Sigma, cat no: T4424), then incubated at 37° C. for 5 min. Trypsinated cells were then washed 3× with 150 ul of Cellwash (BD, cat no: 349524), followed by resuspension with BD Cytofix/Cytoperm™ plus (BD, cat no: 554715), then incubated at 4° C. for 20 min according to manufacturer. Cells were then washed 2× with 150 ul PermWash (BD, cat no: 554715). Cells were then stained” for “no: 349524), then stained”, “150 ul PermWash, followed by” for “150 ul of Cellwash (BD, cat no: 349524), followed by”
As shown in table 4 the peptides according to the invention had the ability to allocate through the cell membrane.

[5] = Example 4, negative control = 1.00

Concanavalin A [ConA, reference compound]
IFN-g ELISPOT (T-cell spots) ([1]; Patient A (HCV patient)): 5090 and 5035 | IFN-g ELISPOT (T-cell spots) ([1]; Patient B (HCV patient)): 2605 and 2725 | IFN-g ELISPOT (T-cell spots) ([1]; Patient C (HCV patient)): 1355 and 700 | IFN-g ELISPOT (T-cell spots) ([1]; Patient D (HCV patient)): 529 and 512

PVVHLTLRQAGDDFSR [N-biotin, reference compound]
Extracellular staining, median [2, 5]: 1.00 | Intracellular staining, median [3]: 1.00 | Results on DC-cells (geomean peptide-fluorescence) ([4]; BC 16): 3591 and 2271 | Results on DC-cells (geomean peptide-fluorescence) ([4]; BC 16, listed as n-biotin): 3745 | Results on DC-cells (geomean peptide-fluorescence) ([4]; BC43): 3631 | Results on DC-cells (geomean peptide-fluorescence) ([4]; BC43, listed as n-biotin): 1967

RQIKIWFQNRRMKWKK [P-biotin, reference compound]
Extracellular staining, median [2, 5]: 9.15 | Intracellular staining, median [3]: 2.73 | Results on DC-cells (geomean peptide-fluorescence) ([4]; BC43): 26212 and 33545

RRGYIPLVGAPLGBRVARALAHGVRV [51b]
IFN-g ELISPOT (T-cell spots) ([1]; Patient A (HCV patient), listed as 310-51b): 45 and 40 | IFN-g ELISPOT (T-cell spots) ([1]; Patient B (HCV patient), listed as 310-51b): 50 and 85 | IFN-g ELISPOT (T-cell spots) ([1]; Patient C (HCV patient), listed as 310-51b): 45 and 75 | IFN-g ELISPOT (T-cell spots) ([1]; Patient D (HCV patient), listed as 310-51b): 9 and 13 | Results on DC-cells (geomean peptide-fluorescence) ([4]; BC 16): 7000 | Results on DC-cells (geomean peptide-fluorescence) ([4]; BC43): 6082

RRIRNLGRVIETLTGBRLZGYIPLIGA [compound 42]
IFN-g ELISPOT (T-cell spots) ([1]; Patient A (HCV patient), listed as 310-42): 75 and 80 | IFN-g ELISPOT (T-cell spots) ([1]; Patient D (HCV patient), listed as 310-42): 13 and 11 | Results on DC-cells (geomean peptide-fluorescence) ([4]; BC 16): 74920 | Results on DC-cells (geomean peptide-fluorescence) ([4]; BC43): 65811

RRSRNLGKVIDTLTCBRLMGYIPLVGA [42b]
IFN-g ELISPOT (T-cell spots) ([1]; Patient A (HCV patient), listed as 310-42b): 90 and 115 | IFN-g ELISPOT (T-cell spots) ([1]; Patient B (HCV patient), listed as 310-42b): 60 and 80 | IFN-g ELISPOT (T-cell spots) ([1]; Patient D (HCV patient), listed as 310-42b): 13 and 11 | Results on DC-cells (geomean peptide-fluorescence) ([4]; BC 16): 61968 | Results on DC-cells (geomean peptide-fluorescence) ([4]; BC43): 19181

WGYIPLVGAPLGRRVARALAHGVRV [compound 19]
Extracellular staining, median [2]: 1.37 | Intracellular staining, median [3]: 17.41 | Results on DC-cells (geomean peptide-fluorescence) ([4]; BC 16): 8417 | Results on DC-cells (geomean peptide-fluorescence) ([4]; BC43): 6372
